We go through one molecule from PMC8880313, “Discovery of Novel Andrographolide Derivatives as Antiviral Inhibitors against Human Enterovirus A71” (Pharmaceuticals, 2022).

One test concerns EV-A71. Put plainly: Pre-treatment assay. The following applies: pre-treatment 2 h, highest concentration, 12 hpi. The class given is cell-based, human enterovirus A71 (EV-A71) strain 41. The protocol: To confirm this finding, assays to investigate the effect of ZAF-47 on EV-A71 entry into cells were performed. With pre-treatment assay, we first treated the cells with different concentrations of ZAF-47 before subjecting them to EV-A71 infection. The aim was to investigate if ZAF-47 was able to bind to host surface receptors which would prevent the virions from binding and thus blocking viral entry. […] Even at the highest concentration, the reduction in viral titre (0.8 log10 PFU/mL decrease) was not as pronounced as post-treatment and could likely be due to drug toxicity. Thus, it is unlikely that ZAF-47 inhibits EV-A71 infection by binding with host receptors to block viral entry. With co-treatment assay, we first treated EV-A71 virions with ZAF-47 for 30 min before infecting the cells. The aim was to investigate if ZAF-47 was able to bind to viral surface proteins which would prevent the virions from binding to the host receptors and thus blocking viral entry. […] Thus, it is unlikely that ZAF-47 blocks EV-A71 entry into host cells by binding to viral surface proteins. Instead, using entry bypass assay, we were able to deduce that ZAF-47 most likely targets EV-A71 post-entry stages. […]
Seeded 24-well plates, with 1.5 × 10^5 RD cells per well, were incubated overnight at 37 °C with 5% CO2. […] The plates were frozen down at 12 hpi for viral titre quantification using viral plaque assay.

In test [1] the test system is EV-A71 proteins, VP2 and VP0. Put plainly: SDS-PAGE and Western blot of EV-A71 proteins. The following applies: 6 h. The class given is cell-based, human enterovirus A71 (EV-A71) strain 41. The protocol:
Since ZAF-47 possibly targets EV-A71 post-entry stages, we were interested in looking at the effect of ZAF-47 on EV-A71 protein expression. To do so, we first infected RD cells with EV-A71. We then treated the infected cells with different concentration of ZAF-47 for 6 h and collected the cell lysates for SDE-PAGE and Western blot. […] Since ZAF-47 acts on the post-entry stages and reduces EV-A71 protein expression, we hypothesized that ZAF-47 could be inhibiting RNA replication or protein translation, or possibly both, resulting in reduced viral protein expression.
Seeded 24-well plates, with 1.5 × 10^5 RD cells per well, were incubated overnight at 37 °C with 5% CO2. After which, the cells were subjected to EV-A71 infection (100 µL per well, MOI = 1) for 1 h. Reduced serum DMEM was used for mock-infection. The infected cells were then rinsed with PBS twice before treatment with 0.1% DMSO or ZAF-47 at various concentrations for 6 h at 37 °C with 5% CO2. After 6 h of drug treatment, cells were lysed with 100 µL of 1x Laemmli buffer and cell lysate was stored at −80 °C.
The cell lysate samples were subsequently boiled for 10 min at 100 °C and loaded on to a 10% acrylamide gel. SDS-PAGE was run for 2.5 h at 100V to separate the proteins. Bio Basic 10–250 kDa Protein Ladder BZ0011G (Bio Basic, Markham, Canada) was also loaded as a molecular-weight size marker. […]
Background: In western blotting, separated proteins are transferred to a membrane and probed.

In the case of `CC(=O)OC[C@]1(C)C(=O)CC[C@@]2(C)C(C/C=C3/C(=O)OC[C@@H]3Oc3cccc4cccnc34)=C(C)CC[C@@H]21` [ZAF-47, (14β)-(8′-Quinolinoxy)-3-ketone-9-dehydro-17-hydro-19-acetoxy–andrographolide], in the test with EV-A71, the “reduction in viral titre” value amounted to 0.8 log10 PFU/mL. Further, the “VP0 band intensity reduction in comparison to the control” value in test [1] (5 µM, normalized with β-actin) came out at 35 fold. Moreover, in test [1] (different concentrations), the VP2 band result is “not with any ZAF-47 treatment”.
